The values that follow come from article PMC8401465, “In Vitro Testing of Alternative Synthetic and Natural Antiparasitic Compounds against the Monogenean Sparicotyle chrysophrii” (Pathogens, 2021).

Data set [1] deals with Sparicotyle chrysophrii adults. Put plainly: microbe, parasite or virus in culture. Conditions: Sparicotyle chrysophryii. How it is done:
Firstly, the adult monogeneans were exposed to a range of four concentrations of tested compounds encompassing the full dose–response range; each compound stock at 10 mM was serially diluted 10 (1 mM), 10^2 (0.1 mM), 10^3 (0.01 mM), and 10^4 (1 µM) times. […] Ten monogeneans per well (in triplicate) were added to 2 mL sterile seawater (SW) in 6-well plates, checked at the stereomicroscope for visible signs of mechanical damage, and exposed to selected concentrations in the dark at room temperature (Table 1). The number of live/dead parasites was recorded under the stereomicroscope at 1, 4, 12, and 24 h post-exposure. S. chrysophrii was considered to be alive if it performed any type of movement autonomously or 5 s after gentle probing with a dissection needle. Negative controls comprised the seawater with up to 0.5% of DMSO in total volume, the latter used as a solvent for each compound.

A further data set concerns SAF-1 cells. As to the kind of experiment: Viability of SAF-1 cell line (MTT assay). In kind it is cell-based, Sparus aurata. Conditions: for viability of SAF-1 cells compared to control: 0.1–10 µM, 24, 48, 72 h. How it is done: Sparus aurata fibroblast cell line SAF-1 (ECACC n°00122301) was cultured in 25 cm^2 plastic flasks (Nunc, Darmstadt, Germany) in L-15 Leibowitz medium (Sigma, Haverhill, UK) supplemented with 10% fetal bovine serum (FBS), 2 mmol/L L-glutamine, 100 iu/mL penicillin, and […] streptomycin (all reagents from Sigma-Aldrich, Saint Louis, MO, USA).
Cells were grown at 25 °C under an 85% humidity atmosphere. Cells at 80% of confluence were detached with trypsin solution (0.25% of trypsin in PBS, pH 7.2–7.4) and pelleted by centrifugation (1000 rpm, 10 min, 25 °C). The cell suspension in complete medium was dispensed in a 96-multiwell plate at a density of 8000 cells/well and incubated for 24 h before the exposure to the compounds.
Cytotoxicity assay was performed in six replicates. Stock solutions were prepared by dissolving the compounds in dimethyl sulfoxide (DMSO), and then diluting in complete medium (final concentration of DMSO 0.1%) to obtain concentration of 0.1, 1, and 10 µM of target compounds.
Cells were then incubated for 24, 48, and 72 h in three different plates at 25 °C. Control samples received the same volume of culture medium and DMSO 0.1%, although this concentration of solvent is considered non-toxic.
The toxicity of the compounds was determined using the (3-(4,5-dimethylthiazol-2-yl)-2,5-diphenyltetrazolium bromide (MTT, Sigma-Aldrich) assay, according to [62], as reported in [61]. The results were expressed as viability percentage in respect to the controls (untreated cells).
The MTT assay is based on the reduction in the yellow soluble tetrazolium salt (3-(4,5-dimethylthiazol-2-yl)-2,5-diphenyltetrazolium bromide) (MTT, Sigma-Aldrich, Saint Louis, Missouri, USA) into a blue, insoluble formazan produced by the mitochondrial succinate dehydrogenase. […] After 4 h of incubation, cells were washed again, and the formazan crystals solubilized with […] of DMSO. Plates were shaken (5 min, 100 rpm) in dark conditions and the optical densities (ODs) at 570 nm with background subtraction at 690 nm were determined in a microplate reader (Opsys MR™ Microplate Reader, USA). The percentage of viability was determined by formula:Viability (%) = (OD of the tested sample/OD of the control sample) × 100

For a further data set, the system named is Vibrio harveyi. As to the kind of experiment: Bactericidal activity (MTT), Vibrio harveyi. In kind it is cell-based. Conditions: for inhibition at 0.1 µM / inhibition at 1 µM / inhibition at 10 µM: Vibrio harveyi, read-out: Bactericidal activity (%). As to the method: (§1) Two bacterial fish pathogens, Vibrio harveyi and V. anguillarum were used to test the bactericidal activity of the target compounds, being previously isolated and identified as described in [65]. Lab strains were maintained at −20 °C in Tryptone Soy Broth (TSB, Difco Laboratories, Inc., Detroit, MI, USA) supplemented with 1% (w/v) NaCl (TSB1) and 50% (v/v) glycerol. […] Bacteria in TSB medium were then cultured at the same temperature with continuous shaking (100 rpm) for 24 h. Exponentially grown bacteria were resuspended in sterile PBS and adjusted to the concentration of 10^8 colony forming units (cfu)/mL. Each target compound (20 μL; concentrations 0.1, 1, and 10 µM) was added (in triplicates) to the wells of a flat-bottom 96-well plate, except for the positive control that consisted of 0.5% DMSO in PBS. Aliquots of 20 μL of the previously cultured bacteria were added, and the plate was incubated for 5 h at 25 °C. […] The plate was then centrifuged (4500 rpm, 10 min) and the precipitate dissolved in 200 μL of DMSO. The solution (100 μL) from each well was transferred to another flat-bottom 96-well plate. The absorbance of the dissolved formazan was measured at 570 nm. Bactericidal activity was expressed as percentage of nonviable bacteria, calculated as the difference between absorbance of surviving bacteria compared to the absorbance of bacteria in positive controls (100%).

A further data set has as its system Vibrio anguillarum. As to the kind of experiment: Bactericidal activity (MTT), Vibrio anguillarum. In kind it is cell-based. Particulars: for inhibition at 0.1 µM / inhibition at 1 µM / inhibition at 10 µM: Vibrio anguillarum, read-out: Bactericidal activity (%); for antibacterial activity against V. anguillarum: among the natural compounds. How it is done:
as §1

The test system of data set [2] is Sparicotyle chrysophrii adults. Put plainly: microbe, parasite or virus in culture. Conditions: for LC20 (95% CI), toxicity level for adult S. chrysophrii: 20% mortality; for LC20 (95% CI), toxicity level for adult S. chrysophrii / LC80 (95% CI), toxicity level for adult S. chrysophrii: 4 h post-exposure; for LC80 (95% CI), toxicity level for adult S. chrysophrii: 80% mortality; for LC50: Sparicotyle chrysophryii, 4 h, read-out: LC50 (95% CI), toxicity level for adult S. chrysophrii; for b (SE), slope of dose–response model / e (SE), midpoint of dose–response model: Weibull type 2, c = 0, d = 1, mortality at 4 h post-exposure. As to the method: Subsequently, the monogeneans (n = 6, in triplicate) were exposed to a range of seven concentrations tailored according to each compound’s activity observed in preliminary tests. The range for each compound was scaled down to an appropriate order of magnitude so that each compound reached 100% mortality at 4 h post-exposure (Table 1).
For the dose–response curve fitting, the drc package for R (v4.0.4) was used. An appropriate nonlinear regression model was selected between log-logistic and Weibull type models, based on the Akaike information criterion (AIC) and lack-of-fit test criteria through the use of mselect function. The best scoring model was Weibull type 2 model (asymmetrical) with lower and upper limits fixed to 0 and 1, respectively, as mortality in all assays reached 100%. […] Model parameters and estimated lethal doses (20%, 50%, and 80%) were calculated with standard errors and 95% confidence intervals, based on the delta method, respectively, and adjusted for simultaneous inference through multcomp package. Dose–response curves were visualised using ggplot2 library.

Data set [3] has as its system wild and drug-resistant Leishmania donovani amastigotes. Set-up: method as in PMID 28400285. Conditions: cited from earlier work.

Molecules are shown by their SMILES. “Also recorded” adds a separate entry of the source. Read-outs that look alike come from different tables or passages of the source.

Regarding `CCCCCCc1ccc(O)cc1O` [4-Hexylresorcinol, reference compound], in data set [1] (1 h), the mortality at 1000 µM turned out to be 100%. Also, the “viability of SAF-1 cells compared to control” value with SAF-1 cells is “did not induce a significant reduction in viability”. Moreover, the inhibition at 0.1 µM with Vibrio harveyi (0.1 µM, 5 h at 25 °C) is 19.6 ± 31.5%; in the data set on Vibrio anguillarum (0.1 µM, 5 h at 25 °C), -121 ± 10.9%. The inhibition at 1 µM was 34.7 ± 10.1% in the data set with Vibrio harveyi (1 µM, 5 h at 25 °C) and -76.1 ± 33.9% in the data set on Vibrio anguillarum (1 µM, 5 h at 25 °C). For the same compound, the inhibition at 10 µM in the data set with Vibrio harveyi (10 µM, 5 h at 25 °C) is 67.5 ± 14.1%; in the data set on Vibrio anguillarum (10 µM, 5 h at 25 °C), -55.5 ± 31.6%. The “bactericidal activity against V. harveyi” value with Vibrio harveyi (synthetic compounds, at increased concentrations) is recorded as “significant bactericidal activity”.
The compound `S=C=Nc1ccc(N=C=S)cc1` [Bitoscanate, reference compound] came in with a mortality at 1000 µM in data set [1] (24 h) of 100%. Also, in the data set on SAF-1 cells, the “viability of SAF-1 cells compared to control” value is “did not induce a significant reduction in viability”. Besides, in the data set with Vibrio harveyi (5 h), the inhibition at 0.1 µM was -21.6 ± 6%, the inhibition at 1 µM was -0.088 ± 16.3% and the inhibition at 10 µM amounted to 13.1 ± 5.1%. Besides, the “antimicrobial activity against V. anguillarum” value with Vibrio anguillarum (10 µM, p < 0.05) is on record as “best antimicrobial activity”. In addition, in the data set on Vibrio anguillarum (5 h), the inhibition at 0.1 µM is -10.8 ± 19.9%, the inhibition at 1 µM came to 19.6 ± 3.7% and the inhibition at 10 µM is 30.5 ± 2%.
In the case of `C[C@@H]1CC[C@H]2C(C)(C)[C@H]3C[C@@]12CC[C@@]3(C)O` [Cedrol], in data set [2], the “LC20 (95% CI), toxicity level for adult S. chrysophrii” value is 0.09 (0.06–0.11) mM; the “LC80 (95% CI), toxicity level for adult S. chrysophrii” value is listed as 0.14 (0.12–0.16) mM; the 50% lethal concentration (LC50) was 110 µM; the “b (SE), slope of dose–response model” value is 3.98 (0.66). Moreover, in data set [2], the “e (SE), midpoint of dose–response model” value is 0.12 (0.01). For the same compound, in data set [2] (IC50 1.5 μM (ref 33) against own LC50), the “times the L. donovani IC50 is lower than the LC50 observed for S. chrysophrii” value is given as “approximately 73”. The “reduction in sea bream fibroblasts' viability” value in the data set with SAF-1 cells (10 µM, 72 h of exposure) is on record as “highest reduction in sea bream fibroblasts’ viability; also recorded: moderately toxic to the host cell line during long-term exposure to very high concentrations”. Besides, the inhibition at 0.1 µM in the data set on Vibrio harveyi (0.1 µM, 5 h at 25 °C) is -44.9 ± 7.7%. Also, in the data set with Vibrio harveyi (1 µM, 5 h at 25 °C), the inhibition at 1 µM was -23.8 ± 6.9%. For the same compound, the inhibition at 10 µM with Vibrio harveyi (10 µM, 5 h at 25 °C) is -2.4 ± 26.9%. Besides, in the data set with Vibrio anguillarum, the “potency / effect against V. anguillarum as judged in the discussion” value was “effective only against V. anguillarum”. Besides, in the data set with Vibrio anguillarum (0.1 µM, 5 h at 25 °C), the inhibition at 0.1 µM was -6.9 ± 3%. Further, the inhibition at 1 µM in the data set on Vibrio anguillarum (1 µM, 5 h at 25 °C) was 24.1 ± 8%. Moreover, in the data set on Vibrio anguillarum (10 µM, 5 h at 25 °C), the inhibition at 10 µM worked out at 30.8 ± 6.4%. Further, in the data set with Vibrio anguillarum (p < 0.05), the “antibacterial activity against V. anguillarum” value was “strongest antibacterial activity”. In addition, the “fold increase of selectivity index (CC50/IC50)” value in data set [3] (incorporated and delivered within lipid nanocarrier, wild-type L. donovani) is recorded as 2.1. Further, the IC50 in data set [3] (wild and drug-resistant L. donovani amastigotes infecting humans, read-out: inhibitory concentration (IC50)) was 1500 nM.
In the case of `COc1cc(/C=C/C(=O)CC(=O)/C=C/c2ccc(O)c(OC)c2)ccc1O` [Curcumin], in data set [2], the “LC20 (95% CI), toxicity level for adult S. chrysophrii” value was 0.14 (0.06–0.23) mM; the “LC80 (95% CI), toxicity level for adult S. chrysophrii” value was 0.36 (0.26–0.45) mM; the median lethal concentration (LC50) turned out to be 240 µM; the “b (SE), slope of dose–response model” value was 2.14 (0.44). In data set [2], the “e (SE), midpoint of dose–response model” value is 0.29 (0.03). In data set [2] (comparison with cedrol), the “fold less toxic for the monogenean compared to cedrol” value was found to be 2. In addition, the “cytotoxicity in SAF-1 cells” value in the data set with SAF-1 cells (10 µM for 24 h) is “exerted significant cytotoxicity”. Further, the “potency / effect against V. harveyi as judged in the discussion” value in the data set on Vibrio harveyi is “ineffective against V. harveyi”. Further, the inhibition at 0.1 µM with Vibrio harveyi (0.1 µM, 5 h at 25 °C) was 2.1 ± 15%. In the data set on Vibrio harveyi (1 µM, 5 h at 25 °C), the inhibition at 1 µM turned out to be 7.6 ± 2.1%. Also, the inhibition at 10 µM in the data set on Vibrio harveyi (10 µM, 5 h at 25 °C) worked out at 10.4 ± 4.5%. In addition, the “potency / effect against V. anguillarum as judged in the discussion” value with Vibrio anguillarum was “potent anti-Vibrio anguillarum agent”. Also, the inhibition at 0.1 µM with Vibrio anguillarum (0.1 µM, 5 h at 25 °C) stood at 9.5 ± 7.5%. Further, the inhibition at 1 µM in the data set on Vibrio anguillarum (1 µM, 5 h at 25 °C) was determined as 24.5 ± 14.6%. In addition, the inhibition at 10 µM in the data set with Vibrio anguillarum (10 µM, 5 h at 25 °C) turned out to be 34.9 ± 1.2%. The “antibacterial activity against V. anguillarum” value in the data set with Vibrio anguillarum (p < 0.05) is recorded as “strongest antibacterial activity”.
